Measured values as given in patent US4557934A, “Penetrating topical pharmaceutical compositions containing 1-dodecyl-azacycloheptan-2-one” (priority 1983, dated 1985).

Tests used:
[1] = Penetration study through human skin, Franz diffusion apparatus; assay type: in vitro ADME; settings: for reduction of penetration on addition, in words (compared with octanoic acid): Example 8
Text: EtOH is ethanol. The term mcg=microgram.

rats = settings: cited from earlier work
[2] = clindamycin phosphate, erythromycin base, fusidate sodium, fluorouracil, desonide, amcinonide and triamcinolone acetonide; cited from earlier work

CCCCCCCC(=O)O [octanoic acid]
reduction of penetration on addition to triamcinolone / propylene glycol / C14 OH composition ([1]; Example 8, 0-72 hrs, 4% octanoic acid): 50%

CCCCCCCCCC(=O)O [decanoic acid]
reduction of penetration on addition, in words (compared with octanoic acid) [1]: Substantially similar results

CCCCCCCCCCCCCCCCO [cetyl alcohol]
reduction of penetration on addition, in words (compared with octanoic acid) [1]: Substantially similar results

CCCCCCCCCCCCN1CCCCCC1=O [Azone, 1-dodecyl-azacycloheptan-2-one]
order of toxicity (rats; rat, in vivo): low order of toxicity | lethal dose for 50% survival (LD50) (rats; rats): about 8 g/kg | enhancement of cutaneous penetration [2]: enhance the cutaneous penetration

CCCCCCCCCCCCCCCCCCO [steryl alcohol]
reduction of penetration on addition, in words (compared with octanoic acid) [1]: Substantially similar results
